Assay results: ChEMBL document CHEMBL3751790, “Novel hydroxyamides and amides containing D-glucopyranose or D-fructose units: Biological assays in MCF-7 and MDST8 cell lines” (Bioorg Med Chem Lett, 2016)
Activity calls are given as the source filed them. The calls are words filed in the database; no cut-off is given here.

How the values were obtained:
[1] = Cytotoxicity against human MDST8 cells after 72 hrs by CCK8 assay; assay type: functional, cell-based
[2] = tested on: MCF7; test: Cytotoxicity against human MCF7 cells after 72 hrs by CCK8 assay; assay type: functional, cell-based
[3] = tested on: MCF7; test: Cytotoxicity against human MCF7 cells at 1 x 10^-5 M after 72 hrs by CCK8 assay; assay type: functional; details: for inhibition at 10 µM: MCF7, 72 h
[4] = (§1) Cytotoxicity against human MDST8 cells at 1 x 10^-5 M after 72 hrs by CCK8 assay; assay type: functional; details: MDST8, 72 h
[5] = tested on: MDST8; test: as §1; assay type: functional
[6] = Cytotoxicity against human MDST8 cells at 1 x 10^-8 M after 72 hrs by CCK8 assay; assay type: functional; details: MDST8, 72 h
[7] = Homo sapiens, MDST8, 72 h, read-out: IC50
[8] = Homo sapiens, MCF7, 72 h, read-out: IC50

## CC(=O)O[C@@H]1O[C@H](C(=O)N[C@H]2CN(Cc3ccccc3)C[C@@H]2NC(=O)[C@H]2O[C@@H](OC(C)=O)[C@H](OC(C)=O)[C@@H](OC(C)=O)[C@@H]2OC(C)=O)[C@@H](OC(C)=O)[C@H](OC(C)=O)[C@H]1OC(C)=O
[1]; [7]
  IC50: 100 nM

## C=CCOC(=O)[C@H]1O[C@@H](OC(C)=O)[C@H](OC(C)=O)[C@@H](OC(C)=O)[C@@H]1OC(C)=O
[2]; [8]
  IC50: 4500 nM

## CC(=O)O[C@@H]1O[C@H](C(=O)N2CCCC2)[C@@H](OC(C)=O)[C@H](OC(C)=O)[C@H]1OC(C)=O
[2]; [8]
  IC50: 1000 nM

## CC(=O)O[C@@H]1O[C@H](C(=O)NCCCO)[C@@H](OC(C)=O)[C@H](OC(C)=O)[C@H]1OC(C)=O
[2]; mcf7
  IC50: Active
[1]; mdst8
  IC50: Not Active
[3]
  inhibition at 10 µM: > 60%

## O=C(N[C@H](CO)Cc1ccccc1)[C@H]1OC(O)(CO)[C@@H](O)[C@@H]1O (single isomer, unassigned)
[2]; mcf7
  IC50: Not Active
[1]; mdst8
  IC50: Not Active

## CC(=O)O[C@@H]1O[C@H](C(=O)NCCO)[C@@H](OC(C)=O)[C@H](OC(C)=O)[C@H]1OC(C)=O
[2]; mcf7
  IC50: Active
[1]; mdst8
  IC50: Not Active
[3]
  inhibition at 10 µM: > 60%

## CC(C)[C@@H](CO)NC(=O)[C@H]1OC(O)(CO)[C@@H](O)[C@@H]1O (single isomer, unassigned)
[4]
  inhibition at 10 µM: 80%
[1]; mdst8
  IC50: Active

## CC(C)(C)[C@@H](CO)NC(=O)[C@H]1OC(O)(CO)[C@@H](O)[C@@H]1O (single isomer, unassigned)
[2]; mcf7
  IC50: Active
[3]
  inhibition: Active

## CC(=O)O[C@@H]1O[C@H](C(=O)N[C@H](CO)C(C)C)[C@@H](OC(C)=O)[C@H](OC(C)=O)[C@H]1OC(C)=O
[5]
  inhibition: Active

## O=C(NCCCO)[C@H]1O[C@](O)(CO)[C@@H](O)[C@@H]1O
[2]; mcf7
  IC50: Active
[1]; mdst8
  IC50: Not Active
[3]
  inhibition at 10 µM: > 60%

## CC(=O)O[C@@H]1O[C@H](C(=O)N[C@H](CO)Cc2ccccc2)[C@@H](OC(C)=O)[C@H](OC(C)=O)[C@H]1OC(C)=O
[2]; mcf7
  IC50: Not Active
[1]; mdst8
  IC50: Not Active

## CC(=O)O[C@@H]1O[C@H](C(=O)N[C@H](CO)c2ccccc2)[C@@H](OC(C)=O)[C@H](OC(C)=O)[C@H]1OC(C)=O
[2]; mcf7
  IC50: Not Active
[1]; mdst8
  IC50: Not Active

## O=c1[nH]cc(F)c(=O)[nH]1 [FLUOROURACIL]
[4]
  inhibition at 10 µM: 83%
[2]; [8]
  IC50: 520 nM
[1]; [7]
  IC50: 64 nM
[3]
  inhibition at 10 µM: 60%

## O=C(Nc1ccncc1)[C@H]1O[C@@H](O)[C@H](O)[C@@H](O)[C@@H]1O
[2]; [8]
  IC50: 190 nM

## O=C(N[C@H](CO)c1ccccc1)[C@H]1O[C@](O)(CO)[C@@H](O)[C@@H]1O
[2]; mcf7
  IC50: Not Active
[1]; mdst8
  IC50: Not Active

## O=C(NCCO)[C@H]1O[C@](O)(CO)[C@@H](O)[C@@H]1O
[2]; mcf7
  IC50: Active
[1]; mdst8
  IC50: Not Active
[3]
  inhibition at 10 µM: > 60%

## CC(=O)O[C@@H]1O[C@H](C(=O)NCCCBr)[C@@H](OC(C)=O)[C@H](OC(C)=O)[C@H]1OC(C)=O
[4]
  inhibition at 10 µM: > 90%
[2]; mcf7
  IC50: Not Active
[6]
  inhibition at 0.01 µM: 50%
[1]; [7]
  IC50: 100 nM
